Measurements as given in US5294553A, “Method for the gravimetric determination of oil and grease” (priority 1993, dated 1994).
Like-named read-outs stand apart in the source and are kept apart here.

Legend:
[1] = Table 1A, cited from earlier work
[2] = cited from earlier work
[3] = cited from earlier work; remark: listed apart in the source
Rat = conditions: inhalation, Table 1B; cited from earlier work
[4] = Amount of No. 6 Fuel dissolved; format: physicochemical; conditions: for Amount of No. 6 Fuel Dissolved: Table 1B
[5] = cited from earlier work; remark: listed apart in the source

| Structure (SMILES) | Sol. in Water ([1]; in words) | ε, Dielectric Constant ([2]; Table 1A) | Boil Pt. ([3]; Table 1A) [°C] | other results |
| --- | --- | --- | --- | --- |
| c1ccccc1 [Benzene] | sl. sol. | 2.27 |  |  |
| CCC(C)=O [Butanone] | sol. | 18.5 |  |  |
| S=C=S [Carbon disulfide] |  | 2.64 | 46 |  |
| ClC(Cl)(Cl)Cl [Carbon tetrachloride] | Vsl. sol. | 2.24 | 76 | LC50(ihl) -Rat (Rat): 4,000 ppm; ε, Dielectric Constant ([2]; -20° C., Table 1B): 2.238; Boil Pt. ([3]; Table 1B): 76 °C |
| ClC(Cl)Cl [Chloroform] | Vsl. sol. | 4.81 | 60 | LC50(ihl) -Rat (Rat): 8,000 ppm; ε, Dielectric Constant ([2]; -20° C., Table 1B): 4.80; Boil Pt. ([3]; Table 1B): 60 °C |
| C1=CCCCC1 [Cyclohexene] | sl. sol. | 2.20 | 82 |  |
| C1CCCC1 [Cyclopentane] | sl. sol. | 1.965 | 49 |  |
| C1=CCCC1 [Cyclopentene] |  | 2.20 | < 49 |  |
| CCOC(C)=O [Ethyl acetate] | sl. sol. | 6.02 | 77 | Amount of No. 6 Fuel Dissolved [4]: 31.71%; LC50(ihl) -Rat (Rat): 1,600 ppm; ε, Dielectric Constant ([2]; -20° C., Table 1B): 6.02; Boil Pt. ([3]; Table 1B): 77 °C; Hazards, Comments ([5]; Table 1A, code numbers): 44 |
| C=CC(=O)OCC [Ethyl acrylate] |  |  | 99 |  |
| CCOCC [Ethyl ether] |  | 4.34 | 34.6 | Sol. in Water [1]: 7.5 g/100 g |
| CCSC [Ethyl methyl sulfide] | V. sl. sol. | ~5.72 | 66 |  |
| CCSCC [Ethyl sulfide] | V. sl. sol. | 5.72 | 91 |  |
| FC(F)(Cl)C(F)(Cl)Cl [FREON ®, 1,1,2-trichloro-1,2,2-trifluoroethane] | insol. |  | 50 | Amount of No. 6 Fuel Dissolved [4]: 41.01%; Boil Pt. ([3]; Table 1B): 50 °C |
| c1ccoc1 [Furan] | sl. sol. |  | 32 |  |
| C=CCCCCC [Heptene-1] | ca. sl. sol. | ca. 2.05 | 93 |  |
| CCCCCC [Hexane, n-hexane] | insol. | 1.89 |  | solubility of No. 6 oil, in words ([4]; compared with hexane/methyl tertiary-butyl ether (80:20 v/v)): much less soluble in hexane; adverse effects on absorption through the skin ([5]; nervous system): can be absorbed through the skin causing adverse effects to the nervous system, including a lack of feeling in the extremities and dizziness |
| C=CCCCC [Hexene-1] | ca. sl. sol. | ca. 2.05 | 63 |  |
| ClCCl [Methyl chloride] |  |  |  | Boil Pt. ([3]; Table 1B): 40 °C |
| CC1CCCC1 [Methyl cyclopentane] | V. sl. sol. |  | 72 |  |
| CSC [Methyl sulfide] | sl. sol. | 6.2 | 37 | ε, Dielectric Constant ([2]; -20° C., Table 1B): 6.2; Boil Pt. ([3]; Table 1B): 37 °C |
| COC(C)(C)C [Methyl t-Butyl ether, methyl tertiary-butyl ether] | sl. sol. | ca. 4.00 | 55 | Amount of No. 6 Fuel Dissolved [4]: 99.74%; ε, Dielectric Constant ([2]; -20° C., Table 1B): 4.0; Boil Pt. ([3]; Table 1B): 55 °C |
| ClCCl [Methylene Chloride] |  | 9.08 | 40.2 |  |
| C=CCCC [Pentene-1] |  | 2.10 | 37 | Sol. in Water [1]: 0.04% |
| c1ccsc1 [Thiophene] | sl. sol. | 2.76 | 83 |  |
| C=COC(C)=O [Vinyl acetate] | sl. sol. |  | 72 |  |
| C=COC=C [Vinyl ether] | sl. sol. | 3.94 | 28 |  |
| CO [methyl alcohol] |  |  |  | dielectric constant ε ([2]; alcohols): 31 |
